Target: T1, GST-Xa-hAAK1 (Homo sapiens, UniProt Q2M2I8)
T1 construct: GST (N); Factor Xa cleavage site (Xa) (internal); made in house
Experiment: AAK1 Kinase Assay
Format: biochemical
Conditions: bacterially expressed GST-Xa-hAAK1 3.5 nM; ATP 22 μM; fluoresceinated peptide 1.5 μM; 3 hours at room temperature; Caliper LabChip 3000
Procedure: The assays were performed in U-bottom 384-well plates. The final assay volume was 30 μl prepared from 15 μl additions of enzyme and substrates (fluoresceinated peptide (5-FAM)-Aha-[…]-NH2 and ATP) and test compounds in assay buffer (10 mM Tris-HCL pH 7.4, 10 mM MgCl2, 0.01% Tween-20 and 1.0 mM DTT). The reactions were initiated by the combination of bacterially expressed, GST-Xa-hAAK1 with substrates and test compounds. The reactions were incubated at room temperature for 3 hours and terminated by adding 60 μl of 35 mM EDTA buffer to each sample. The reactions were analyzed on the Caliper LabChip 3000 (Caliper, Hopkinton, Mass.) by electrophoretic separation of the fluorescent substrate and phosphorylated product. […] The final concentration of reagents in the assays are ATP, 22 μM; (5-FAM)-Aha-[…]-NH2, 1.5 μM; GST-Xa-hAAK1, 3.5 nM; and DMSO, 1.6%. […] Compounds were dissolved at 10 mM in dimethylsulfoxide (DMSO) and evaluated at eleven concentrations. IC50 values were derived by non-linear regression analysis.

T1 sequence (Q2M2I8 whole entry): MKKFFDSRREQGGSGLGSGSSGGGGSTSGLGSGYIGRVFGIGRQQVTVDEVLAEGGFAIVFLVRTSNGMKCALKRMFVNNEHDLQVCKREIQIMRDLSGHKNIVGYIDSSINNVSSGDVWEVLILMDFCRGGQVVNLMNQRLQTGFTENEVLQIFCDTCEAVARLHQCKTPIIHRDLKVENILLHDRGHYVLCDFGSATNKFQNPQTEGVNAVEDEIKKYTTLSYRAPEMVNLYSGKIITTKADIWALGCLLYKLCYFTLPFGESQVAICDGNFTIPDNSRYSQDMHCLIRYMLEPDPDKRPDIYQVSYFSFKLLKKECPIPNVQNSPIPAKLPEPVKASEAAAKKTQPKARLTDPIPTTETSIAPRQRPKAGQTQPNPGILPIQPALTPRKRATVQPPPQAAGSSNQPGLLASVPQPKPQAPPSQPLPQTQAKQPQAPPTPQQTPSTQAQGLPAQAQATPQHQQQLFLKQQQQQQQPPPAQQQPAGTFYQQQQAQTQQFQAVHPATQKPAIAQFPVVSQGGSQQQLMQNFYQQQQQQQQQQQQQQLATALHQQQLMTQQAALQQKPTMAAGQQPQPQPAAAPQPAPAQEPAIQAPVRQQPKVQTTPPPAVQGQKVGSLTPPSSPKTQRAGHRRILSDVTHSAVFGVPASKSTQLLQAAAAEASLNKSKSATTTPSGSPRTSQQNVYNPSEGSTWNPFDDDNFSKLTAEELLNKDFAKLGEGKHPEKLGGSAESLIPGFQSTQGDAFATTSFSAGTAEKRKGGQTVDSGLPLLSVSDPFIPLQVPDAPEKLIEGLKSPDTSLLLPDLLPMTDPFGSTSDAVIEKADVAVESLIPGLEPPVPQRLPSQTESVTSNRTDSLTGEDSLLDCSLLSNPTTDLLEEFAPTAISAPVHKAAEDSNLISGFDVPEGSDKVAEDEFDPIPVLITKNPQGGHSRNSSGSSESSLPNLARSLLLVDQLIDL

Compound | IC50 [nM]
CC(C)C[C@](C)(N)COc1ccc(-c2ccnc(NCc3cccnc3)c2)cc1C(F)(F)F [Example 410, (S)-4-(4-((2-amino-2,4-dimethylpentyl)oxy)-3-(trifluoromethyl)phenyl)-N-(pyridin-3-ylmethyl)pyridin-2-amine] | 3.6
COCc1nc2c(-c3ccc(OC[C@@](C)(N)CC(C)C)c(C)c3)ccnc2[nH]1 [Example 296, (S)-1-(4-(2-(methoxymethyl)-3H-imidazo[4,5-b]pyridin-7-yl)-2-methylphenoxy)-2,4-dimethylpentan-2-amine] | 132
CC(C)C[C@](C)(N)COc1ccc(-c2ccnn3cc(C4CC4)nc23)cc1C#N [Example 499, (S)-2-((2-amino-2,4-dimethylpentyl)oxy)-5-(2-cyclopropylimidazo[1,2-b]pyridazin-8-yl)benzonitrile] | 1.2
Cc1cc(C(=O)Nc2cc(-c3ccc(OC[C@@](C)(N)CC(C)C)c(C(F)(F)F)c3)ccn2)no1 [Example 408, (S)—N-(4-(4-((2-amino-2,4-dimethylpentyl)oxy)-3-(trifluoromethyl)phenyl)pyridin-2-yl)-5-methylisoxazole-3-carboxamide] | 0.5
CC(C)C[C@](C)(N)COc1cc(F)c(-c2ccnc3ccnn23)cc1F [Example 489, (S)-1-(2,5-difluoro-4-(pyrazolo[1,5-a]pyrimidin-7-yl)phenoxy)-2,4-dimethylpentan-2-amine] | 278
CC(C)CC(N)(CO)COc1cnc(-c2ccnc(C(F)F)c2)cc1C(F)F (stereo not drawn) [Example 277, 2-amino-2-(((2′,4-bis(difluoromethyl)-[2,4′-bipyridin]-5-yl)oxy)methyl)-4-methylpentan-1-ol] | 1.8
Cc1cn2nccc(-c3ccc(OC[C@@](C)(N)CC(C)C)c(C(F)F)n3)c2n1 [Example 453, (S)-1-((2-(difluoromethyl)-6-(2-methylimidazo[1,2-b]pyridazin-8-yl)pyridin-3-yl)oxy)-2,4-dimethylpentan-2-amine] | 0.4
CC(C)C[C@](C)(N)COc1cnc(-c2ccnc3ccnn23)cc1C#N [Example 486, (S)-5-((2-amino-2,4-dimethylpentyl)oxy)-2-(pyrazolo[1,5-a]pyrimidin-7-yl)isonicotinonitrile] | 1370
CC(C)C[C@](C)(N)COc1ccc(-c2ccnn3ccnc23)cc1C(F)(F)F [Example 283, (S)-1-(4-(imidazo[1,2-b]pyridazin-8-yl)-2-(trifluoromethyl)phenoxy)-2,4-dimethylpentan-2-amine] | 0.4
Cc1nccc(-c2ccc(OCC(C)(C)N)c(C)n2)n1 [Example 321, 2-methyl-1-((2-methyl-6-(2-methylpyrimidin-4-yl)pyridin-3-yl)oxy)propan-2-amine] | 162
CC(C)C[C@](C)(N)COc1ccc(-c2ccnc(NC(=O)CC3CCCCCC3)c2)cc1C(F)(F)F [Example 399, (S)—N-(4-(4-((2-amino-2,4-dimethylpentyl)oxy)-3-(trifluoromethyl)phenyl)pyridin-2-yl)-2-cycloheptylacetamide] | 5.9
CC(C)C[C@](C)(N)COc1ccc(-c2ccnc(NC3CCCOC3)c2)cc1Cl (mixture of isomers) [Example 338, 4-(4-(((S)-2-amino-2,4-dimethylpentyl)oxy)-3-chlorophenyl)-N-(tetrahydro-2H-pyran-3-yl)pyridin-2-amine] | 35
CC(C)C[C@](C)(N)COc1ncc(-c2ccnc3ccnn23)cc1Cl [Example 272, (S)-1-((3-chloro-5-(pyrazolo[1,5-a]pyrimidin-7-yl)pyridin-2-yl)oxy)-2,4-dimethylpentan-2-amine] | 0.8
CC(C)C[C@](C)(N)COc1ccc(-c2ncnc3[nH]ccc23)cc1C#N [Example 362, (S)-2-((2-amino-2,4-dimethylpentyl)oxy)-5-(7H-pyrrolo[2,3-d]pyrimidin-4-yl)benzonitrile] | 1
CC(C)C[C@](C)(N)COc1ccc(-c2cc(Cl)nn3ccnc23)cc1C#N [Example 286, (S)-2-((2-amino-2,4-dimethylpentyl)oxy)-5-(6-chloroimidazo[1,2-b]pyridazin-8-yl)benzonitrile] | 47
CCN1Cc2nccc(-c3ccc(OC[C@@](C)(N)CC(C)C)c(C(F)(F)F)c3)c2C1=O [Example 418, (S)-4-(4-((2-amino-2,4-dimethylpentyl)oxy)-3-(trifluoromethyl)phenyl)-6-ethyl-6,7-dihydro-5H-pyrrolo[3,4-b]pyridin-5-one] | 29
CC(C)C[C@](C)(N)COc1ccc(-c2ncnc3c2ccn3C)cc1C#N [Example 364, (S)-2-((2-amino-2,4-dimethylpentyl)oxy)-5-(7-methyl-7H-pyrrolo[2,3-d]pyrimidin-4-yl)benzonitrile] | 24

More lines, in order of falling IC50, values ahead:

IC50 [nM] | Compound
362 | Cc1cc(-c2ccc(OC[C@@](C)(N)CC(C)C)c3ncsc23)ccn1 [Example 267, (S)-2,4-dimethyl-1-((7-(2-methylpyridin-4-yl)benzo[d]thiazol-4-yl)oxy)pentan-2-amine]
229 | Cc1cc(-c2ccnc3[nH]c(N)nc23)ccc1OC[C@@](C)(N)CC(C)C [Example 259, (S)-7-(4-((2-amino-2,4-dimethylpentyl)oxy)-3-methylphenyl)-3H-imidazo[4,5-b]pyridin-2-amine]
55 | CC(C)C[C@@](C)(N)COc1ncc(-c2ccnc3ccnn23)cc1Cl [Example 265, (R)-1-((3-chloro-5-(pyrazolo[1,5-a]pyrimidin-7-yl)pyridin-2-yl)oxy)-2,4-dimethylpentan-2-amine]
4 | Cc1nc(-c2ccnc3ccnn23)ccc1OC[C@@](C)(N)CC(C)C [Example 488, (S)-2,4-dimethyl-1-((2-methyl-6-(pyrazolo[1,5-a]pyrimidin-7-yl)pyridin-3-yl)oxy)pentan-2-amine]
3.4 | COC(=O)Nc1cc(-c2ccc(OC[C@@](C)(N)CC(C)C)c3ncsc23)ccn1 [Example 269, (S)-methyl (4-(4-((2-amino-2,4-dimethylpentyl)oxy)benzo[d]thiazol-7-yl)pyridin-2-yl)carbamate]
2.9 | CC(C)C[C@](C)(N)COc1ccc(-c2ccnc3ccnn23)cc1F [Example 461, (S)-1-(2-fluoro-4-(pyrazolo [1,5-a]pyrimidin-7-yl)phenoxy)-2,4-dimethylpentan-2-amine]
2.7 | CC(C)C[C@](C)(N)COc1ccc(-c2ccnc3cc(C4CC4)nn23)cc1C(F)(F)F [Example 483, (S)-1-(4-(2-Cyclopropylpyrazolo[1,5-a]pyrimidin-7-yl)-2-(trifluoromethyl)phenoxy)-2,4-dimethylpentan-2-amine]
2 | CC(C)C[C@](C)(N)COc1ccc(-c2ccnc(NC(=O)CC3CCCCC3)c2)cc1C(F)(F)F [Example 394, (S)—N-(4-(4-((2-amino-2,4-dimethylpentyl)oxy)-3-(trifluoromethyl)phenyl)pyridin-2-yl)-2-cyclohexylacetamide]
1.5 | Cc1csc(Nc2nccc(-c3ccc(OC[C@@](C)(N)CC(C)C)c(C)c3)n2)n1 [Example 381, (S)—N-(4-(4-((2-amino-2,4-dimethylpentyl)oxy)-3-methylphenyl)pyrimidin-2-yl)-4-methylthiazol-2-amine]
0.8 | Cc1csc(Nc2nccc(-c3ccc(OC[C@@](C)(N)CC(C)C)c(C(F)(F)F)c3)n2)n1 [Example 376, (S)—N-(4-(4-((2-amino-2,4-dimethylpentyl)oxy)-3-(trifluoromethyl)phenyl)pyrimidin-2-yl)-4-methylthiazol-2-amine]
0.6 | CC(C)C[C@](C)(N)COc1ccc(-c2ccnc(NC(=O)c3ccc(Br)o3)c2)cc1C(F)(F)F [Example 401, (S)—N-(4-(4-((2-amino-2,4-dimethylpentyl)oxy)-3-(trifluoromethyl)phenyl)pyridin-2-yl)-5-bromofuran-2-carboxamide]
0.5 | CC(=O)NCC(=O)Nc1cc(-c2ccc(OC[C@@](C)(N)CC(C)C)c(C(F)(F)F)c2)ccn1 [Example 402, (S)-2-acetamido-N-(4-(4-((2-amino-2,4-dimethylpentyl)oxy)-3-(trifluoromethyl)phenyl)pyridin-2-yl)acetamide]
0.5 | CC(C)C[C@](C)(N)COc1ccc(-c2ccnc(NC(=O)C3CCCC3)c2)cc1C(F)(F)F [Example 391, (S)—N-(4-(4-((2-amino-2,4-dimethylpentyl)oxy)-3-(trifluoromethyl)phenyl)pyridin-2-yl)cyclopentanecarboxamide]
0.48 | CC(C)C[C@](C)(N)COc1ccc(-c2ccnc(NC(=O)c3nccs3)c2)cc1Cl [Example 260, (S)—N-(4-(4-((2-amino-2,4-dimethylpentyl)oxy)-3-chlorophenyl)pyridin-2-yl)thiazole-2-carboxamide]
0.4 | CC(C)C[C@](C)(N)COc1ccc(-c2ccnc3ccnn23)cc1C(F)(F)F [Example 467, (S)-2,4-dimethyl-1-(4-(pyrazolo[1,5-a]pyrimidin-7-yl)-2-(trifluoromethyl)phenoxy)pentan-2-amine]
0.2 | CC(C)C[C@](C)(N)COc1ccc(-c2ccnc3ccnn23)cc1CF [Example 353, (S)-1-(2-(fluoromethyl)-4-(pyrazolo[1,5-a]pyrimidin-7-yl)phenoxy)-2,4-dimethylpentan-2-amine]

Reference: patent publication US10246469B2, “Biaryl kinase inhibitors” (BRISTOL-MYERS SQUIBB COMPANY, priority 2015, dated 2019)
